# Data from patent US10660877B2 (BRISTOL-MYERS SQUIBB COMPANY, priority 2016, dated 2020).
# Read-outs that look alike come from different tables or passages of the source.
# Legend:
# human TLR7 = human TLR7 (Homo sapiens (Human), UniProt Q9NYK1); test: TLR7 inhibition reporter assay (HEK-Blue cells, SEAP reporter, gardiquimod stimulation); assay type: cell-based; conditions: HEK-Blue cells overexpressing human TLR7, gardiquimod 7.5 μM
# human TLR8 = human TLR8 (Homo sapiens (Human), UniProt Q9NR97); test: TLR8 inhibition reporter assay (HEK-Blue cells, SEAP reporter, R848 stimulation);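 also: compounds tested from 0.05 nM to 50 µM, 22 h at 37 °C, SEAP measured with HEK-Blue Detection, inhibition relative to agonist plus DMSO versus a known inhibitor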
# human TLR8, sequence (Q9NR97 27-1041): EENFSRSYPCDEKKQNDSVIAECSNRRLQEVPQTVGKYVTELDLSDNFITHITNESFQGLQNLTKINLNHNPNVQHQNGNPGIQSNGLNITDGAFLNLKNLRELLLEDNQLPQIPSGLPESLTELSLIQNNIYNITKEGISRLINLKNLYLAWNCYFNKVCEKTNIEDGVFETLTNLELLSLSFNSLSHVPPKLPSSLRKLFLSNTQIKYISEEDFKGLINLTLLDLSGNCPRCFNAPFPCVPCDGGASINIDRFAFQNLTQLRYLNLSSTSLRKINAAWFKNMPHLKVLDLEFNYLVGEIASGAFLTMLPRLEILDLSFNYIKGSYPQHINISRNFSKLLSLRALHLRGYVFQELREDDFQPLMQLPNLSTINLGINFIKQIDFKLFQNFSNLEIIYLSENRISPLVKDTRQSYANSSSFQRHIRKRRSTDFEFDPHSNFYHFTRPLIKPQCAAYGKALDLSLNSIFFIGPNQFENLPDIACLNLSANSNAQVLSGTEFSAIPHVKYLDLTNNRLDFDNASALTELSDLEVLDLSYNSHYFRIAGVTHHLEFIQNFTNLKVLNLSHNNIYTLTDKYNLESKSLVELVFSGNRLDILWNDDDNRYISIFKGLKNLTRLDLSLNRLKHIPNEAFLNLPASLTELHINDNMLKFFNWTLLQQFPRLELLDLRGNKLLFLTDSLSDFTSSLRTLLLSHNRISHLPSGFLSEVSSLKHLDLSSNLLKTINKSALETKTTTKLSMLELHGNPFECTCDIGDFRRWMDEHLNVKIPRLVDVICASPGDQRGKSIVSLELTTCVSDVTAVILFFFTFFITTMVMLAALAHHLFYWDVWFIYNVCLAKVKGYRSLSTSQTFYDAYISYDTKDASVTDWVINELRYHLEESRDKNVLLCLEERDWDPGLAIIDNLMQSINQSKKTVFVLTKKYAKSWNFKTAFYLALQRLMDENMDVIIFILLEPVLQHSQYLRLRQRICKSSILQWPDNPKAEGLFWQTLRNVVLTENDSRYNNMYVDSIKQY
# human TLR9 = human TLR9 (Homo sapiens (Human), UniProt Q9NR96); test: TLR9 inhibition reporter assay (HEK-Blue cells, SEAP reporter, ODN2006 stimulation);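 also: compounds tested over 0.05 nM to 50 µM, 22 h incubation, inhibition taken as SEAP signal drop from agonist plus DMSO wells toward a known inhibitor control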
# human TLR9, sequence (Q9NR96 26-1032): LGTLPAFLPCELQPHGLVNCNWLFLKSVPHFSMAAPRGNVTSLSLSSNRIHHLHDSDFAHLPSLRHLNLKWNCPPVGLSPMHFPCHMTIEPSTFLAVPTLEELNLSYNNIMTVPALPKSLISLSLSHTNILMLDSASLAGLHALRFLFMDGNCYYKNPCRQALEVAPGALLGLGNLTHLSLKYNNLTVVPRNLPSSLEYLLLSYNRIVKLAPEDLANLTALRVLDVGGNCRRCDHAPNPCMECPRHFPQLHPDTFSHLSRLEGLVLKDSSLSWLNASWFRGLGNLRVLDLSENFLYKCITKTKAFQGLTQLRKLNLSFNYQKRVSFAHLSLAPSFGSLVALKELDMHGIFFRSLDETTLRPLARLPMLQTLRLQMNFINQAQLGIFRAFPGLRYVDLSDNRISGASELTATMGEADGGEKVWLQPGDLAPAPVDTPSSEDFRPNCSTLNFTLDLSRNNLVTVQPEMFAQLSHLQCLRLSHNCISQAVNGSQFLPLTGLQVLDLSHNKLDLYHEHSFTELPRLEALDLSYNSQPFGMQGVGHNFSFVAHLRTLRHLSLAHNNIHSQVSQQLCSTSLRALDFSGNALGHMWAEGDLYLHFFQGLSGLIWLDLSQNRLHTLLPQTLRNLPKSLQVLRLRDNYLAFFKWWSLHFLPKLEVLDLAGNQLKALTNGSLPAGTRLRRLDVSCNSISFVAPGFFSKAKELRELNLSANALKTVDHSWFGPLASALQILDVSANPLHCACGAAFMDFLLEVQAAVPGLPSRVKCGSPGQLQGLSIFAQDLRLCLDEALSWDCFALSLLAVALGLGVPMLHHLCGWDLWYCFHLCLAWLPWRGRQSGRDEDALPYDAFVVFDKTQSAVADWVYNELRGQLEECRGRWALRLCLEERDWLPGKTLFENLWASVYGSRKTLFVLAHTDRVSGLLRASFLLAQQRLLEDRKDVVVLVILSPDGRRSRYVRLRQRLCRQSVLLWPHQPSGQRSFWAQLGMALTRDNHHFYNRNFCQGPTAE
# [1] = TLR8 IC50, HEK-Blue cells overexpressing human TLR8, R848 15.9 μM
# [2] = TLR9 IC50, HEK-Blue cells overexpressing human TLR9, ODN2006 5 nM
# [3] = read-out: TLR8 IC50, HEK-Blue cells overexpressing human TLR8, R848 15.9 μM
# [4] = read-out: TLR9 IC50, HEK-Blue cells overexpressing human TLR9, ODN2006 5 nM
# human TLR7, sequence (Q9NYK1 27-1049): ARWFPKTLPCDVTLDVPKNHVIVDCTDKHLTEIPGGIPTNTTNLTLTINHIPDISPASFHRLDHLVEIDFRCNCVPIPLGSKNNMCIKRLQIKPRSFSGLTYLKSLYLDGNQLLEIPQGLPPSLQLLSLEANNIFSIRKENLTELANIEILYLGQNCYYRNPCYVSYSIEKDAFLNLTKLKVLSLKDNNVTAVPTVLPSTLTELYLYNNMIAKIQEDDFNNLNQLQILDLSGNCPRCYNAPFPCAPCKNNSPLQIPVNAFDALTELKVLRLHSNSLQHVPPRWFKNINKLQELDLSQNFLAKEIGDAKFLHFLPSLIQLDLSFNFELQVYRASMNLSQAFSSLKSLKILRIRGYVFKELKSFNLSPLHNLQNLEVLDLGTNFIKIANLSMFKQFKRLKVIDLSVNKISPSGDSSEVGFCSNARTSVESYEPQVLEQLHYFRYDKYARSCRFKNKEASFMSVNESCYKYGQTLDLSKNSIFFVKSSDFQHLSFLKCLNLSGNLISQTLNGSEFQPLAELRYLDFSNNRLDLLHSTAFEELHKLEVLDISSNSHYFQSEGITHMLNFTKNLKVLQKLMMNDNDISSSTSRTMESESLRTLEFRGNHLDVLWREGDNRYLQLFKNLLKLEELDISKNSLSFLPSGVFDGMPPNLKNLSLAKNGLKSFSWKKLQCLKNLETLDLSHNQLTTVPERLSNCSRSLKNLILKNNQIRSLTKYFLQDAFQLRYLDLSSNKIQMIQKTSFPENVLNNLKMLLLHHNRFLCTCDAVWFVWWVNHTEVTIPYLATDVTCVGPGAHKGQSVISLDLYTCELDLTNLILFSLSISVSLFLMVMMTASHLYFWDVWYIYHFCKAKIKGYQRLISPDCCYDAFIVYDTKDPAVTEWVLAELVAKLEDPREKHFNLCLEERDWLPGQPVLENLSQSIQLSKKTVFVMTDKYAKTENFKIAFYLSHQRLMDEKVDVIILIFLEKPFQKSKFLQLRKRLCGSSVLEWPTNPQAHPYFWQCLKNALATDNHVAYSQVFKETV
IC50 (human TLR7),IC50 (human TLR8; [1]),IC50 (human TLR9; [2]),IC50 (human TLR8; [3]),IC50 (human TLR9; [4]),SMILES
9.6 nM,,,32.4 nM,954 nM,"Cc1cc(-c2[nH]c3ccc(C4CCN(CC(=O)N(C)CC(C)C)CC4)cc3c2C(C)C)cc(C)n1 [Example 245, 2-(4-(2-(2,6-dimethylpyridin-4-yl)-3-isopropyl-1H-indol-5-yl)piperidin-1-yl)-N-isobutyl-N-methylacetamide]"
2.6 nM,,,5.3 nM,663 nM,"CCN(C)C(=O)CN1CCC(c2ccc3[nH]c(-c4cc(C)nc(C)c4)c(C(C)C)c3c2)CC1 [Example 246, 2-(4-(2-(2,6-dimethylpyridin-4-yl)-3-isopropyl-1H-indol-5-yl)piperidin-1-yl)-N-ethyl-N-methylacetamide]"
3 nM,,,4 nM,462 nM,"Cc1cc(-c2[nH]c3ccc(C4CCN(CC(=O)N(C)CC#N)CC4)cc3c2C(C)C)cc(C)n1 [Example 247, N-(cyanomethyl)-2-(4-(2-(2,6-dimethylpyridin-4-yl)-3-isopropyl-1H-indol-5-yl)piperidin-1-yl)-N-methylacetamide]"
2.3 nM,,,10.2 nM,343 nM,"Cc1cc(-c2[nH]c3ccc(C4CCN(CC(=O)N(C)C5CC5)CC4)cc3c2C(C)C)cc(C)n1 [Example 248, N-cyclopropyl-2-(4-(2-(2,6-dimethylpyridin-4-yl)-3-isopropyl-1H-indol-5-yl)piperidin-1-yl)-N-methylacetamide]"
15.4 nM,,,36.3 nM,973 nM,"Cc1cc(-c2[nH]c3ccc(C4CCN(CC(=O)N5CCCC(C)(C)C5)CC4)cc3c2C(C)C)cc(C)n1 [Example 249, 1-(3,3-dimethylpiperidin-1-yl)-2-(4-(2-(2,6-dimethylpyridin-4-yl)-3-isopropyl-1H-indol-5-yl)piperidin-1-yl)ethan-1-one]"
11.7 nM,,,36.4 nM,1200 nM,"Cc1cc(-c2[nH]c3ccc(C4CCN(CC(=O)N(C)C(C)(C)C)CC4)cc3c2C(C)C)cc(C)n1 [Example 250, N-(tert-butyl)-2-(4-(2-(2,6-dimethylpyridin-4-yl)-3-isopropyl-1H-indol-5-yl)piperidin-1-yl)-N-methylacetamide]"
4.3 nM,,,9 nM,817 nM,"Cc1cc(-c2[nH]c3ccc(C4CCN(CC(=O)NC5(C)CC5)CC4)cc3c2C(C)C)cc(C)n1 [Example 251, 2-(4-(2-(2,6-dimethylpyridin-4-yl)-3-isopropyl-1H-indol-5-yl)piperidin-1-yl)-N-(1-methylcyclopropyl)acetamide]"
8.3 nM,,,24.4 nM,1810 nM,"Cc1cc(-c2[nH]c3ccc(C4CCN(CC(=O)N[C@H](C)C(F)(F)F)CC4)cc3c2C(C)C)cc(C)n1 [Example 252, (R)-2-(4-(2-(2,6-dimethylpyridin-4-yl)-3-isopropyl-1H-indol-5-yl)piperidin-1-yl)-N-(1,1,1-trifluoropropan-2-yl)acetamide]"

# The remaining lines, values behind:
SMILES,IC50 (human TLR7),IC50 (human TLR8; [1]),IC50 (human TLR9; [2]),IC50 (human TLR8; [3]),IC50 (human TLR9; [4])
"Cc1cc(-c2[nH]c3ccc(C4CCN(CC(=O)N5CCOCC5)CC4)cc3c2C(C)C)cc(C)n1 [Example 232, 2-(4-(2-(2,6-dimethylpyridin-4-yl)-3-isopropyl-1H-indol-5-yl)piperidin-1-yl)-1-morpholinoethan-1-one]",3.6 nM,7.7 nM,627 nM,,
"Cc1cc(-c2[nH]c3ccc(C4CCN(CC(=O)NC5(C)COC5)CC4)cc3c2C(C)C)cc(C)n1 [Example 233, 2-(4-(2-(2,6-dimethylpyridin-4-yl)-3-isopropyl-1H-indol-5-yl)piperidin-1-yl)-N-(3-methyloxetan-3-yl)acetamide]",6.3 nM,,,6.4 nM,970 nM
"CCC(C)NC(=O)CN1CCC(c2ccc3[nH]c(-c4cc(C)nc(C)c4)c(C(C)C)c3c2)CC1 (stereo not drawn) [Example 234, N-(sec-butyl)-2-(4-(2-(2,6-dimethylpyridin-4-yl)-3-isopropyl-1H-indol-5-yl)piperidin-1-yl)acetamide]",11.4 nM,,,24.9 nM,1720 nM
"CCNC(=O)CN1CCC(c2ccc3[nH]c(-c4cc(C)nc(C)c4)c(C(C)C)c3c2)CC1 [Example 235, 2-(4-(2-(2,6-dimethylpyridin-4-yl)-3-isopropyl-1H-indol-5-yl)piperidin-1-yl)-N-ethylacetamide]",5.2 nM,14.1 nM,965 nM,,
"Cc1cc(-c2[nH]c3ccc(C4CCN(CC(=O)NCCC(C)(C)C)CC4)cc3c2C(C)C)cc(C)n1 [Example 236, N-(3,3-dimethylbutyl)-2-(4-(2-(2,6-dimethylpyridin-4-yl)-3-isopropyl-1H-indol-5-yl)piperidin-1-yl)acetamide]",46.5 nM,,,67.2 nM,2090 nM
"Cc1cc(-c2[nH]c3ccc(C4CCN(CC(=O)NCCC(C)C)CC4)cc3c2C(C)C)cc(C)n1 [Example 237, 2-(4-(2-(2,6-dimethylpyridin-4-yl)-3-isopropyl-1H-indol-5-yl)piperidin-1-yl)-N-isopentylacetamide]",24.9 nM,,,51.1 nM,1890 nM
"CCCNC(=O)CN1CCC(c2ccc3[nH]c(-c4cc(C)nc(C)c4)c(C(C)C)c3c2)CC1 [Example 238, 2-(4-(2-(2,6-dimethylpyridin-4-yl)-3-isopropyl-1H-indol-5-yl)piperidin-1-yl)-N-propylacetamide]",5.2 nM,,,10.2 nM,942 nM
"Cc1cc(-c2[nH]c3ccc(C4CCN(CC(=O)NCC#N)CC4)cc3c2C(C)C)cc(C)n1 [Example 239, N-(cyanomethyl)-2-(4-(2-(2,6-dimethylpyridin-4-yl)-3-isopropyl-1H-indol-5-yl)piperidin-1-yl)acetamide]",6.7 nM,,,8.9 nM,1590 nM
"CCOCCNC(=O)CN1CCC(c2ccc3[nH]c(-c4cc(C)nc(C)c4)c(C(C)C)c3c2)CC1 [Example 240, 2-(4-(2-(2,6-dimethylpyridin-4-yl)-3-isopropyl-1H-indol-5-yl)piperidin-1-yl)-N-(2-ethoxyethyl)acetamide]",8.3 nM,7.9 nM,1090 nM,,
"Cc1cc(-c2[nH]c3ccc(C4CCN(CC(=O)N5CCCCC5)CC4)cc3c2C(C)C)cc(C)n1 [Example 241, 2-(4-(2-(2,6-dimethylpyridin-4-yl)-3-isopropyl-1H-indol-5-yl)piperidin-1-yl)-1-(piperidin-1-yl)ethan-1-one]",6.4 nM,,,10.7 nM,444 nM
"Cc1cc(-c2[nH]c3ccc(C4CCN(CC(=O)N5CCCC5)CC4)cc3c2C(C)C)cc(C)n1 [Example 242, 2-(4-(2-(2,6-dimethylpyridin-4-yl)-3-isopropyl-1H-indol-5-yl)piperidin-1-yl)-1-(pyrrolidin-1-yl)ethan-1-one]",5.2 nM,,,24.7 nM,1020 nM
"Cc1cc(-c2[nH]c3ccc(C4CCN(CC(=O)NC5(C)CCC5)CC4)cc3c2C(C)C)cc(C)n1 [Example 243, 2-(4-(2-(2,6-dimethylpyridin-4-yl)-3-isopropyl-1H-indol-5-yl)piperidin-1-yl)-N-(1-methylcyclobutyl)acetamide]",10 nM,,,20 nM,817 nM
"Cc1cc(-c2[nH]c3ccc(C4CCN(CC(=O)N(C)C(C)C)CC4)cc3c2C(C)C)cc(C)n1 [Example 244, 2-(4-(2-(2,6-dimethylpyridin-4-yl)-3-isopropyl-1H-indol-5-yl)piperidin-1-yl)-N-isopropyl-N-methylacetamide]",8.2 nM,20.3 nM,990 nM,,
